Among the data in patent US6686373B2, “Pyrazoloquinolinone derivatives as protein kinase C inhibitors” (Warner-Lambert Company LLC, priority 2001, dated 2004) are melting point values, retold here.

Where a name gives a salt, the structure may show the parent alone.

The term melting point denotes the temperature of the solid-liquid transition.

With `Cn1ncc2[nH]c3ccc(Cc4cccc(C#N)c4)cc3c(=O)c21` [Example 28, 3-[(1-METHYL-9-OXO-4,9-DIHYDRO-1H-PYRAZOLO[4,3-b]QUINOLIN-7-YL)METHYL]BENZONITRILE], the melting point is 275 °C.
With `CCc1ccc2[nH]c3cnn(C)c3c(=O)c2c1` [Example 6, 7-ETHYL-1-METHYL-1,4-DIHYDRO-9H-PYRAZOLO[4,3-b]QUINOLIN-9-ONE] the figure was 266 °C; with `CCc1cccc2[nH]c3cnn(C)c3c(=O)c12` [Example 8, 8-ETHYL-1-METHYL-1,4-DIHYDRO-9H-PYRAZOLO[4,3-b]QUINOLIN-9-ONE], 250 °C.
Compound `Cn1ncc2[nH]c3c(c(=O)c21)CCCC3` [Example 67, 1-METHYL-5,6,7,8-TETRAHYDRO-1H-PYRAZOLO[4,3-b]QUINOLIN-9-OL] returned a melting point of more than 300 °C.
As for `Cc1ccc2c(c1)c(=O)c1c(cnn1C)n2CC(N)=O` [Example 52, 2-(1,7-DIMETHYL-9-OXO-1,9-DIHYDRO-4H-PYRAZOLO[4,3-b]QUINOLIN-4-YL)ACETAMIDE], the figure is 247 to 252 °C; as for `CCCCCCn1c2ccc(C)cc2c(=O)c2c1cnn2C`, 80 to 82 °C.
Take `CCN(C)CCCn1c2ccc(C)cc2c(=O)c2c1cnn2C.Cl`: the melting point was 213 °C.
`Cc1ccc2c(c1)c(=O)c1c(cnn1C)n2CCCN(C)C.Cl` returned a melting point of 240 °C.
As for `Cl.Cn1ncc2[nH]c3ccc(CCCN)cc3c(=O)c21`, the figure is more than 300 °C; as for `Cc1ccc2[nH]c3c(N)nn(C)c3c(=O)c2c1` [Example 12, 3-AMINO-1,7-DIMETHYL-1,4-DIHYDRO-9H-PYRAZOLO[4,3-b]QUINOLIN-9-ONE], more than 300 °C.
In the case of `Cc1ccc2c(c1)c(=O)c1c(cnn1C)n2CCCl` [Example 62, 4-(2-CHLOROETHYL)-1,7-DIMETHYL-1,4-DIHYDRO-9H-PYRAZOLO[4,3-b]QUINOLIN-9-ONE], the melting point stood at 196 °C.
With `Cc1ccc2c(c1)c(=O)c1c(cnn1C)n2CCCCCCN(C)C.Cl` the figure was 210 °C; with `Cl.Cn1ncc2[nH]c3ccc(Cc4ccccc4CN)cc3c(=O)c21`, more than 250 °C.
With `Cn1ncc2[nH]c3c(c(=O)c21)CC(Cc1ccc(Cl)cc1)CC3` (stereo not drawn) (as salt: hydrochloride) the figure was 279 °C.
As for `Cl.Cn1ncc2[nH]c3ccc(Cc4cccc(N)c4)cc3c(=O)c21`, the figure is 287 °C (dec.); as for `CN(C)CCOc1ccc(Cc2ccc3[nH]c4cnn(C)c4c(=O)c3c2)cc1.Cl`, 235 to 240 °C.
`Cn1ncc2[nH]c3cccc(-c4cccc(O)c4)c3c(=O)c21` [Example 39, 8-(3-HYDROXYPHENYL)-1-METHYL-1,4-DIHYDRO-9H-PYRAZOLO[4,3-b]QUINOLIN-9-ONE] showed a melting point of more than 300 °C.
In turn, `Cn1ncc2[nH]c3c(Br)cccc3c(=O)c21` [Example 5, 5-BROMO-1-METHYL-1,4-DIHYDRO-9H-PYRAZOLO[4,3-b]QUINOLIN-9-ONE] yielded a melting point of 287 °C.
With `Cn1ncc2[nH]c3c(c(=O)c21)CC(Cc1ccccc1)CC3` (stereo not drawn) (as salt: hydrochloride) the figure was more than 250 °C.
With `CSCCn1c2ccc(C)cc2c(=O)c2c1cnn2C` [Example 53, 1,7-DIMETHYL-4-[2-(METHYLSULFANYL)ETHYL]-1,4-DIHYDRO-9H-PYRAZOLO[4,3-b]QUINOLIN-9-ONE] the figure was 125 °C; with `Cl.Cn1ncc2[nH]c3ccc(Cc4cccnc4)cc3c(=O)c21`, 259 °C; with `Cn1ncc2[nH]c3ccc(Cc4ccccc4C(N)=O)cc3c(=O)c21` [Example 32, 2-[(1-METHYL-9-OXO-4,9-DIHYDRO-1H-PYRAZOLO[4,3-b]QUINOLIN-7-YL)METHYL]BENZAMIDE], more than 300 °C.
As for `Cn1ncc2[nH]c3cccc(-c4ccc(O)cc4)c3c(=O)c21` [Example 38, 8-(4-HYDROXYPHENYL)-1-METHYL-1,4-DIHYDRO-9H-PYRAZOLO[4,3-b]QUINOLIN-9-ONE], the figure is more than 300 °C; as for `COc1ccccc1Cc1ccc2[nH]c3cnn(C)c3c(=O)c2c1` [Example 21, 7-(2-METHOXYBENZYL)-1-METHYL-1,4-DIHYDRO-9H-PYRAZOLO[4,3-b]QUINOLIN-9-ONE], 255 °C; as for `Cc1ccc2c(c1)c(=O)c1c(cnn1C)n2CCCNS(C)(=O)=O` [Example 60, N-[3-(1,7-DIMETHYL-9-OXO-1,9-DIHYDRO-4H-PYRAZOLO[4,3-b]QUINOLIN-4-YL)PROPYL]METHANESULFONAMIDE], 179 °C.
`Cn1ncc2[nH]c3ccc(Cc4ccccc4Cl)cc3c(=O)c21` [Example 15, 7-(2-CHLOROBENZYL)-1-METHYL-1,4-DIHYDRO-9H-PYRAZOLO[4,3-b]QUINOLIN-9-ONE] registered a melting point of 278 °C.
With `Cn1ncc2[nH]c3ccc(Cc4ccccc4)cc3c(=O)c21` [Example 11, 7-BENZYL-1-METHYL-1,4-DIHYDRO-9H-PYRAZOLO[4,3-b]QUINOLIN-9-ONE] the figure was 282 °C; with `Cn1ncc2[nH]c3ccc(Cc4cccc(O)c4)cc3c(=O)c21` [Example 20, 7-(3-HYDROXYBENZYL)-1-METHYL-1,4-DIHYDRO-9H-PYRAZOLO[4,3-b]QUINOLIN-9-ONE], more than 270 °C.
`Cn1ncc2[nH]c3ccc(-c4cccc(O)c4)cc3c(=O)c21` [Example 40, 7-[3-HYDROXYPHENYL]-1-METHYL-1,4-DIHYDRO-9H-PYRAZOLO[4,3-b]QUINOLIN-9-ONE] had a melting point of more than 250 °C.
In turn, `Cn1ncc2[nH]c3ccc(Cc4ccc(C#N)cc4)cc3c(=O)c21` [Example 26, 4-[(1-METHYL-9-OXO-4,9-DIHYDRO-1H-PYRAZOLO[4,3-b]QUINOLIN-7-YL)METHYL]BENZONITRILE] returned a melting point of 291 °C.
As for `Cl.Cn1ncc2[nH]c3ccc(Cc4ccccc4N)cc3c(=O)c21`, the figure is 273 °C; as for `Cn1ncc2[nH]c3ccc(NC(=O)c4ccccc4)cc3c(=O)c21` [Example 46, N-(1-METHYL-9-OXO-4,9-DIHYDRO-1H-PYRAZOLO[4,3-b]QUINOLIN-7-YL)BENZAMIDE], more than 300 °C; as for `COc1ccc(Cc2ccc3[nH]c4cnn(C)c4c(=O)c3c2)cc1` [Example 16, 7-(4-METHOXYBENZYL)-1-METHYL-1,4-DIHYDRO-9H-PYRAZOLO[4,3-b]QUINOLIN-9-ONE], 248 to 249 °C.
Compound `Cc1ccc2c(c1)c(=O)c1c(cnn1C)n2CCN.Cl` came in with a melting point of more than 280 °C.
`CCc1ccc2c(=O)c3c(cnn3C)[nH]c2c1` [Example 9, 6-ETHYL-1-METHYL-1,4-DIHYDRO-9H-PYRAZOLO[4,3-b]QUINOLIN-9-ONE]: the melting point was 263 °C.
For `Cn1ncc2[nH]c3ccc(F)cc3c(=O)c21` [Example 1, 7-FLUORO-1-METHYL-1,4-DIHYDRO-9H-PYRAZOLO[4,3-b]QUINOLIN-9-ONE], the melting point was found to be 301 °C.
With `Cn1ncc2[nH]c3ccc(Cc4cccc(C(=O)O)c4)cc3c(=O)c21` [Example 30, 3-[(1-METHYL-9-OXO-4,9-DIHYDRO-1H-PYRAZOLO[4,3-b]QUINOLIN-7-YL)METHYL]BENZOIC ACID], the melting point is more than 300 °C.
Turning to `Cn1ncc2[nH]c3cc(F)ccc3c(=O)c21` [Example 3, 6-FLUORO-1-METHYL-1,4-DIHYDRO-9H-PYRAZOLO[4,3-b]QUINOLIN-9-ONE], the melting point amounted to 269 °C.
`CCCCn1c2ccc(C)cc2c(=O)c2c1cnn2C` [Example 48, 4-BUTYL-1,7-DIMETHYL-1,4-DIHYDRO-9H-PYRAZOLO[4,3-b]QUINOLIN-9-ONE] showed a melting point of 262 °C.
Compound `Cn1ncc2[nH]c3c(F)cccc3c(=O)c21` [Example 2, 5-FLUORO-1-METHYL-1,4-DIHYDRO-9H-PYRAZOLO[4,3-b]QUINOLIN-9-ONE] registered a melting point of more than 300 °C.
Consider `Cn1ncc2[nH]c3cccc(F)c3c(=O)c21` [Example 4, 8-FLUORO-1-METHYL-1,4-DIHYDRO-9H-PYRAZOLO[4,3-b]QUINOLIN-9-ONE], for which the melting point is more than 300 °C.
As to `CCc1cccc2c(=O)c3c(cnn3C)[nH]c12` [Example 7, 5-ETHYL-1-METHYL-1,4-DIHYDRO-9H-PYRAZOLO[4,3-b]QUINOLIN-9-ONE], the melting point is 254 °C.
As for `Cc1ccc2c(c1)c(=O)c1c(cnn1C)n2CCN(C)C.Cl`, the figure is 255 °C.
For the compound `Cl.Cn1ncc2[nH]c3ccc(Cc4ccc(CN)cc4)cc3c(=O)c21`, the melting point is more than 300 °C.
With `Cn1ncc2[nH]c3ccc(Cc4cccc([N+](=O)[O-])c4)cc3c(=O)c21` [Example 23, 1-METHYL-7-(3-NITROBENZYL)-1,4-DIHYDRO-9H-PYRAZOLO[4,3-b]QUINOLIN-9-ONE] the figure was 279 to 283 °C; with `Cn1ncc2[nH]c3ccc(Cc4cccc(C(N)=O)c4)cc3c(=O)c21` [Example 29, 3-[(1-METHYL-9-OXO-4,9-DIHYDRO-1H-PYRAZOLO[4,3-b]QUINOLIN-7-YL)METHYL]BENZAMIDE], more than 300 °C; with `Cl.Cn1ncc2[nH]c3ccc(Cc4cccc(CN)c4)cc3c(=O)c21`, more than 300 °C.
With `Cc1ccc2c(c1)c(=O)c1c(cnn1C)n2CC#N` [Example 51, (1,7-DIMETHYL-9-OXO-1,9-DIHYDRO-4H-PYRAZOLO[4,3-b]QUINOLIN-4-YL)ACETONITRILE] the figure was 214 to 219 °C.
